What was measured:
[1] = system: normal NK cells expanded with K562-aAPC; assay: percent inhibition of viability; higher = more inhibition; details: 72 h, IL-2 2.5 ng/mL
Procedure: (§1)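 Drug sensitivity and resistance testing on K562-aAPC-expanded normal NK cells: 5 concentrations (10-fold steps over a 10,000-fold range), 72 h at 37 °C, viability by CellTiter-Glo normalised to DMSO and benzethonium chloride controls; DSS from the fitted curve.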

DERL-7 (IL-2 2.5 ng/mL) [2] = assay: as above; details: 72 h
IMC-1 (IL-2 20 ng/mL) [3] = assay: as above; details: 72 h
KAI3 (IL-2 2.5 ng/mL) [4] = assay: as above; details: 72 h
KHYG-1 (IL-2 2.5 ng/mL) [5] = assay: as above; details: 72 h
NK-92 (IL-2 2.5 ng/mL) [6] = assay: as above; details: 72 h
NK-YS (IL-2 2.5 ng/mL) [7] = assay: as above; details: 72 h
NKL (IL-2 2.5 ng/mL) [8] = assay: as above; details: 72 h
SNK-6 (IL-2 2.5 ng/mL) [9] = assay: as above; details: 72 h
YT (IL-2 2.5 ng/mL) [10] = assay: as above; details: 72 h
[11] = system: normal primary NK cells, pool 1 (3 donors) (IL-2 2.5 ng/mL); assay: as above; details: 72 h
[12] = system: normal primary NK cells, pool 1 (3 donors), resting (IL-2 0 ng/mL); assay: as above; details: 72 h
[13] = system: normal primary NK cells, pool 2 (3 donors) (IL-2 2.5 ng/mL); assay: as above; details: 72 h
[14] = system: normal primary NK cells, pool 3 (3 donors) (IL-2 2.5 ng/mL); assay: as above; details: 72 h
[15] = system: normal NK cells expanded with K562-aAPC; assay: drug sensitivity score (DSS) (DSS units); higher = more sensitive; extreme values may be limits of the assay; details: 72 h; IL-2 2.5 ng/mL
Procedure: as §1

DERL-7 (IL-2 2.5 ng/mL) [16] = assay: as above; details: 72 h
IMC-1 (IL-2 20 ng/mL) [17] = assay: as above; details: 72 h
KAI3 (IL-2 2.5 ng/mL) [18] = assay: as above; details: 72 h
KHYG-1 (IL-2 2.5 ng/mL) [19] = assay: as above; details: 72 h
NK-92 (IL-2 2.5 ng/mL) [20] = assay: as above; details: 72 h
NK-YS (IL-2 2.5 ng/mL) [21] = assay: as above; details: 72 h
NKL (IL-2 2.5 ng/mL) [22] = assay: as above; details: 72 h
SNK-6 (IL-2 2.5 ng/mL) [23] = assay: as above; details: 72 h
YT (IL-2 2.5 ng/mL) [24] = assay: as above; details: 72 h
[25] = system: normal primary NK cells, pool 1 (3 donors) (IL-2 2.5 ng/mL); assay: as above; details: 72 h
[26] = system: normal primary NK cells, pool 1 (3 donors), resting (IL-2 0 ng/mL); assay: as above; details: 72 h
[27] = system: normal primary NK cells, pool 2 (3 donors) (IL-2 2.5 ng/mL); assay: as above; details: 72 h
[28] = system: normal primary NK cells, pool 3 (3 donors) (IL-2 2.5 ng/mL); assay: as above; details: 72 h

O=C(O)CC1CC(c2ccccc2)=NO1 (centres undefined) [VGX-1027] (max concentration tested 10000 nM)
percent inhibition of viability ([1]; 1 nM): -7.12% | percent inhibition of viability ([1]; 10 nM): -7.03% | percent inhibition of viability ([1]; 100 nM): 0.76% | percent inhibition of viability ([1]; 1000 nM): 6.38% | percent inhibition of viability ([1]; 10000 nM): 14.7% | percent inhibition of viability (DERL-7 (IL-2 2.5 ng/mL) [2]; 1 nM): 0.25% | percent inhibition of viability (DERL-7 (IL-2 2.5 ng/mL) [2]; 10 nM): -1.69% | percent inhibition of viability (DERL-7 (IL-2 2.5 ng/mL) [2]; 100 nM): -4.26% | percent inhibition of viability (DERL-7 (IL-2 2.5 ng/mL) [2]; 1000 nM): -3.18% | percent inhibition of viability (DERL-7 (IL-2 2.5 ng/mL) [2]; 10000 nM): -6.46% | percent inhibition of viability (IMC-1 (IL-2 20 ng/mL) [3]; 1 nM): 0.5% | percent inhibition of viability (IMC-1 (IL-2 20 ng/mL) [3]; 10 nM): 0.17% | percent inhibition of viability (IMC-1 (IL-2 20 ng/mL) [3]; 100 nM): 6.38% | percent inhibition of viability (IMC-1 (IL-2 20 ng/mL) [3]; 1000 nM): 5.66% | percent inhibition of viability (IMC-1 (IL-2 20 ng/mL) [3]; 10000 nM): 15.5% | percent inhibition of viability (KAI3 (IL-2 2.5 ng/mL) [4]; 1 nM): -6.5% | percent inhibition of viability (KAI3 (IL-2 2.5 ng/mL) [4]; 10 nM): -1.11% | percent inhibition of viability (KAI3 (IL-2 2.5 ng/mL) [4]; 100 nM): 1.3% | percent inhibition of viability (KAI3 (IL-2 2.5 ng/mL) [4]; 1000 nM): 12.6% | percent inhibition of viability (KAI3 (IL-2 2.5 ng/mL) [4]; 10000 nM): 35.1% | percent inhibition of viability (KHYG-1 (IL-2 2.5 ng/mL) [5]; 1 nM): 0.61% | percent inhibition of viability (KHYG-1 (IL-2 2.5 ng/mL) [5]; 10 nM): -5.96% | percent inhibition of viability (KHYG-1 (IL-2 2.5 ng/mL) [5]; 100 nM): -1.03% | percent inhibition of viability (KHYG-1 (IL-2 2.5 ng/mL) [5]; 1000 nM): 3.73% | percent inhibition of viability (KHYG-1 (IL-2 2.5 ng/mL) [5]; 10000 nM): 20% | percent inhibition of viability (NK-92 (IL-2 2.5 ng/mL) [6]; 1 nM): -3.95% | percent inhibition of viability (NK-92 (IL-2 2.5 ng/mL) [6]; 10 nM): -4.08% | percent inhibition of viability (NK-92 (IL-2 2.5 ng/mL) [6]; 100 nM): -2.12% | percent inhibition of viability (NK-92 (IL-2 2.5 ng/mL) [6]; 1000 nM): 11.7% | percent inhibition of viability (NK-92 (IL-2 2.5 ng/mL) [6]; 10000 nM): 26.6% | percent inhibition of viability (NK-YS (IL-2 2.5 ng/mL) [7]; 1 nM): -1.78% | percent inhibition of viability (NK-YS (IL-2 2.5 ng/mL) [7]; 10 nM): -5.47% | percent inhibition of viability (NK-YS (IL-2 2.5 ng/mL) [7]; 100 nM): 0.49% | percent inhibition of viability (NK-YS (IL-2 2.5 ng/mL) [7]; 1000 nM): 4.16% | percent inhibition of viability (NK-YS (IL-2 2.5 ng/mL) [7]; 10000 nM): 16.7% | percent inhibition of viability (NKL (IL-2 2.5 ng/mL) [8]; 1 nM): -7.13% | percent inhibition of viability (NKL (IL-2 2.5 ng/mL) [8]; 10 nM): -10.2% | percent inhibition of viability (NKL (IL-2 2.5 ng/mL) [8]; 100 nM): 1.01% | percent inhibition of viability (NKL (IL-2 2.5 ng/mL) [8]; 1000 nM): 15.5% | percent inhibition of viability (NKL (IL-2 2.5 ng/mL) [8]; 10000 nM): 23.6% | percent inhibition of viability (SNK-6 (IL-2 2.5 ng/mL) [9]; 1 nM): -0.72% | percent inhibition of viability (SNK-6 (IL-2 2.5 ng/mL) [9]; 10 nM): -26.7% | percent inhibition of viability (SNK-6 (IL-2 2.5 ng/mL) [9]; 100 nM): -22.3% | percent inhibition of viability (SNK-6 (IL-2 2.5 ng/mL) [9]; 1000 nM): -7.03% | percent inhibition of viability (SNK-6 (IL-2 2.5 ng/mL) [9]; 10000 nM): 3.07% | percent inhibition of viability (YT (IL-2 2.5 ng/mL) [10]; 1 nM): -2.93% | percent inhibition of viability (YT (IL-2 2.5 ng/mL) [10]; 10 nM): -7% | percent inhibition of viability (YT (IL-2 2.5 ng/mL) [10]; 100 nM): -1.39% | percent inhibition of viability (YT (IL-2 2.5 ng/mL) [10]; 1000 nM): 5.41% | percent inhibition of viability (YT (IL-2 2.5 ng/mL) [10]; 10000 nM): 20.1% | percent inhibition of viability ([11]; 1 nM): -3.12% | percent inhibition of viability ([11]; 10 nM): 16.9% | percent inhibition of viability ([11]; 100 nM): 11.2% | percent inhibition of viability ([11]; 1000 nM): 17.1% | percent inhibition of viability ([11]; 10000 nM): 11.4% | percent inhibition of viability ([12]; 1 nM): 3.76% | percent inhibition of viability ([12]; 10 nM): 20.2% | percent inhibition of viability ([12]; 100 nM): 15.6% | percent inhibition of viability ([12]; 1000 nM): 10.9% | percent inhibition of viability ([12]; 10000 nM): 5.12% | percent inhibition of viability ([13]; 1 nM): -4.95% | percent inhibition of viability ([13]; 10 nM): 7.51% | percent inhibition of viability ([13]; 100 nM): 2.82% | percent inhibition of viability ([13]; 1000 nM): 7.55% | percent inhibition of viability ([13]; 10000 nM): 7.46% | percent inhibition of viability ([14]; 1 nM): -13.4% | percent inhibition of viability ([14]; 10 nM): 4.04% | percent inhibition of viability ([14]; 100 nM): 5.21% | percent inhibition of viability ([14]; 1000 nM): 2.93% | percent inhibition of viability ([14]; 10000 nM): 6.93% | drug sensitivity score [15]: 0.56 | drug sensitivity score (DERL-7 (IL-2 2.5 ng/mL) [16]): 0 | drug sensitivity score (IMC-1 (IL-2 20 ng/mL) [17]): 0.28 | drug sensitivity score (KAI3 (IL-2 2.5 ng/mL) [18]): 3.28 | drug sensitivity score (KHYG-1 (IL-2 2.5 ng/mL) [19]): 1.09 | drug sensitivity score (NK-92 (IL-2 2.5 ng/mL) [20]): 2.51 | drug sensitivity score (NK-YS (IL-2 2.5 ng/mL) [21]): 0.79 | drug sensitivity score (NKL (IL-2 2.5 ng/mL) [22]): 2.41 | drug sensitivity score (SNK-6 (IL-2 2.5 ng/mL) [23]): 0 | drug sensitivity score (YT (IL-2 2.5 ng/mL) [24]): 1.27 | drug sensitivity score [25]: 4.99 | drug sensitivity score [26]: 0 | drug sensitivity score [27]: 0 | drug sensitivity score [28]: 0

From the supplement of paper PMC5908809
